Source: patent publication US20220380383A1, “NEUROPROTECTIVE PDI MODULATING SMALL MOLECULES AND METHODS OF USE THEREOF” (THE TRUSTEES OF COLUMBIA UNIVERSITY IN THE CITY OF NEW YORK, priority 2018, published 2022)
Values after ≈ are worked out from the molar mass of the structure shown. Values joined by “and” are separate entries in the source; they are usually repeats but may differ in a detail not shown here. Identical values can stand only once. “Also recorded” adds a separate entry of the source. Like-named read-outs stand apart in the source and are kept apart here.

What was measured:
[1] = system: cortical pyramidal neurons in rat coronal brain slice explants co-transfected with YFP and Tau-4R; test: AD brain slice model (Tau-4R); type: cell-based
Description: The cortical regions of each brain slice were then scored for numbers of healthy pyramidal neurons remaining. Data are plotted as means±SEM. Graph represents an average of 3 independent experimental runs. Significant difference is denoted with * with respect to the Tau-4R condition by ANOVA followed by Dunnett's post hoc comparison test at p<0.05.
To see if the mechanism of LOC14 protection can ameliorate other neurodegenerative disease phenotypes, we used a brain slice model of Alzheimer's disease (AD) in which the degeneration of cortical pyramidal neurons is induced via transfected tau protein containing four repeats of the microtubulin-binding domain (Tau-4R). Rat coronal brain slice explants were co-transfected with YFP and Tau-4R and treated with LOC14, benzoisothiazolone, or DMSO vehicle-only for 3 days. The cortical region of each brain slice was then scored for number of healthy pyramidal neurons remaining.

[2] = Solubility (stock solvent)
PC12 mHTTQ103 cells = test: Rescue of PC12 cells from mHTTQ103-induced cell death; type: cell-based, rat; conditions: for EC50: Rattus norvegicus, PC-12
wild-type PDIa = molecular target: T1, wild-type PDIa (Homo sapiens, UniProt P07237); test: MALDI-TOF mass spectrometry with wild-type PDIa; type: binding
T1 construct: made in house; host or cells: Escherichia coli BL21-Gold (DE3)
T1 sequence (P07237 18-134): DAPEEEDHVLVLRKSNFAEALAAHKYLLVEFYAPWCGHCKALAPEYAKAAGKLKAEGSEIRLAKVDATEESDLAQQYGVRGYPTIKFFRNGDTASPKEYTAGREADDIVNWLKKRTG
Description: As mentioned, we synthesized several fluorine-containing analogs of LOC14 (analogs LC-43 and LC-40). Addition of fluorine was the only modification that was tolerated at the ortho position without a complete loss of activity in cells and in targeting PDI in vitro (Table 9). […] We hypothesized that these compounds might be binding to PDI covalently, and therefore would not show heat evolution by calorimetry. To test this hypothesis, we conducted MALDI-TOF mass-spectrometry experiments with wild-type PDIa and LC-43. […] This confirmed that LC-43 did indeed bind to PDIa, and that this binding was […]. The lack of binding by ITC might be again caused because LC-43 interaction with PDI is entropy-driven with small enthalpic changes. […] Additionally, we evaluated LC-43 using a genetically encoded redox reporter transfected into neurons. […] In contrast, treatment with the non-selective reducing agent dithiothreitol (DTT) produces an immediate and dramatic reduction in the roGFP2 fluorescence ratio that leads rapidly to cell degeneration and death (FIG. 16D). […] This single fluorine atom substitution in LOC14 structure seems to be an improvement in the design of compounds with more favorable drug properties.

[3] = system: uninduced PC12 cells not expressing mHTTQ103; test: General cell toxicity in PC12 cell culture assay; type: cell-based
Experimental: Neuroprotection was assessed by each compound's ability to rescue cells from mutant-huntingtin-induced cell death (“Ind Q103” cells; blue). General cell toxicity of each compound was assessed in uninduced cells not expressing mutant-huntingtin protein (“Unind Q103” cells; red). NMP, DMSO, LOC14 in NMP and LOC14 in DMSO were used as controls.
Data from cells induced to express mHTT^Q103 (blue) and cells not expressing mHTT^Q103 (red) are plotted as mean percent of DMSO-treated uninduced cells±SD with n=3.
The follow-up testing of primary screen hits was performed in a similar way. Fresh powder stocks of primary hits were re-ordered from vendors, dissolved in DMSO and tested in a two-fold serial dilution across 10 wells in both tebufenozide-induced and uninduced PC12 mHTT^Q103 cells. Dose-response curves were plotted as mean±SD and fit to either four-parameter sigmoidal (for uninduced cells) or bell-shaped (induced) function using Prism (GraphPad Software).

PDE4D2 = molecular target: T2, PDE4D2 (Homo sapiens, UniProt Q08499); test: Safety47 panel non-kinase enzyme PDE4D2; type: biochemical; conditions: Inhibitor mode; 3 μM
T2 construct: CEREP (CRO panel)
T2 sequence (Q08499 303-809): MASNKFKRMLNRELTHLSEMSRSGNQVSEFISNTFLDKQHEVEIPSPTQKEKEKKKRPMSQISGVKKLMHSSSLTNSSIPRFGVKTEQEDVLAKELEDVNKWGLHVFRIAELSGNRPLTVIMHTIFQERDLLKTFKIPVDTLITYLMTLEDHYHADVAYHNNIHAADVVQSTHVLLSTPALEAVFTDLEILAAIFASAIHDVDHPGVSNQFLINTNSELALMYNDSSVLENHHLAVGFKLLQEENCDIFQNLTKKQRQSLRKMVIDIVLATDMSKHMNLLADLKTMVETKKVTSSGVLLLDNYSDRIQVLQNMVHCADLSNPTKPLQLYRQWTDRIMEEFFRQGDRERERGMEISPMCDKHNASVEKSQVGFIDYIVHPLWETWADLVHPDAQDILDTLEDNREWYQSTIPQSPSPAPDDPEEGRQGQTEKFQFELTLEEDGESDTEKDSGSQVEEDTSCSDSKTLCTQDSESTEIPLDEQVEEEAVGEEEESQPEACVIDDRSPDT
Description: (§1) LOC14 was also submitted for testing in CEREP's Safety47 panel. CEREP is a CRO specializing in preclinical research, discovery and development of new pharmaceutical drugs.

NET = molecular target: T3, NET (Homo sapiens, UniProt P23975); test: Safety47 panel transporter NET; type: cell-based; conditions: Blocker mode; 3 μM
T3 construct: CEREP (CRO panel)
T3 sequence (P23975 whole entry): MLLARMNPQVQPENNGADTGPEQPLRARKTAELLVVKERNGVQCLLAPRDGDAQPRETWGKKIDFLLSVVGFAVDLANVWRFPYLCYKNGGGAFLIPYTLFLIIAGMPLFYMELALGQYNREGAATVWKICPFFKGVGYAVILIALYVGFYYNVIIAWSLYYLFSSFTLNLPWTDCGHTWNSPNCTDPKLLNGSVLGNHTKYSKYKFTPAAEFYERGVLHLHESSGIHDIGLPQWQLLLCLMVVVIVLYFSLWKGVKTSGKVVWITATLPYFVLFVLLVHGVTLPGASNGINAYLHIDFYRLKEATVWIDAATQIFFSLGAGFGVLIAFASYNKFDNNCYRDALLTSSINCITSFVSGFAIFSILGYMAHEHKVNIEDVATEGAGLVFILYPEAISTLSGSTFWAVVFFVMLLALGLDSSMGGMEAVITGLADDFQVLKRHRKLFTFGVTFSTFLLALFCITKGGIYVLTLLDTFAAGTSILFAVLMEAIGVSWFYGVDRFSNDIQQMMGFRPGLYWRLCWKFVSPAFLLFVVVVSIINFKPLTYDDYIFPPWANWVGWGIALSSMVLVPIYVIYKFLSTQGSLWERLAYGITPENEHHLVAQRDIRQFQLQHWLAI
Description: as §1

PDE3A = molecular target: T4, PDE3A (Homo sapiens, UniProt Q14432); test: Safety47 panel non-kinase enzyme PDE3A; type: biochemical; conditions: Inhibitor mode; 3 μM
T4 construct: CEREP (CRO panel)
T4 sequence (Q14432 whole entry): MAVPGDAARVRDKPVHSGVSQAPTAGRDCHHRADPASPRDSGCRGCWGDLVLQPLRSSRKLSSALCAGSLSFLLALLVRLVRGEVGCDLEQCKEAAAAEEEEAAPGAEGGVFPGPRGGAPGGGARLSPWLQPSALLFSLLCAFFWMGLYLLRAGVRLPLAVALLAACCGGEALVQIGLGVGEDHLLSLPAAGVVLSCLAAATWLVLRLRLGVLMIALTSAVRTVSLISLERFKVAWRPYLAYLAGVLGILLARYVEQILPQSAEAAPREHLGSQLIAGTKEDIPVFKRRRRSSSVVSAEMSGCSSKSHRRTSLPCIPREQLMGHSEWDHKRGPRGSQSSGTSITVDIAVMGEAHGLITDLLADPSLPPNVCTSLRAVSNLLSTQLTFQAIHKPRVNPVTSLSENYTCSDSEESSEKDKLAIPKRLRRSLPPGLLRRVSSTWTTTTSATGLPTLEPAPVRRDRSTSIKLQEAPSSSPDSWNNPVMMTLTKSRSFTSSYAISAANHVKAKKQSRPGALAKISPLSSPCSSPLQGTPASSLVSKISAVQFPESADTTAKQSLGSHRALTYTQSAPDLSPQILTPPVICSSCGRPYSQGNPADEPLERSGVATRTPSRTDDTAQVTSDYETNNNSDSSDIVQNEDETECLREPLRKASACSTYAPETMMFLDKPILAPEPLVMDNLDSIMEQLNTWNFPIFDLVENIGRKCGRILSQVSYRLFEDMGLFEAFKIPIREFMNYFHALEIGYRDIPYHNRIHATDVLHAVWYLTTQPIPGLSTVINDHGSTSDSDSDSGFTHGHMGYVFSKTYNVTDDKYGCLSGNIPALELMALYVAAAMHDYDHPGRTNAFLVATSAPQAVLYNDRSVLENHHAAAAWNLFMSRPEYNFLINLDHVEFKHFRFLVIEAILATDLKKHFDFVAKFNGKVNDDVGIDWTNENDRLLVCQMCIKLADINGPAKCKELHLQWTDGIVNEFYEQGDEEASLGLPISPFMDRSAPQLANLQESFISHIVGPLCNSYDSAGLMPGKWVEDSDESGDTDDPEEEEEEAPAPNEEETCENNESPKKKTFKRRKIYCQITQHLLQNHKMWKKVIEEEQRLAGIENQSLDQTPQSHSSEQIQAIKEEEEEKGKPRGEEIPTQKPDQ
Description: as §1

[4] = molecular target: Transporter, Norepinephrine (NET) (Homo sapiens, UniProt P23975); test: Off-target panel, Norepinephrine transporter; type: binding; conditions: Conc. 3 μM
Transporter, Norepinephrine (NET), sequence (P23975 whole entry): as the sequence (P23975 whole entry) above

ADORA2A = molecular target: T5, ADORA2A (Homo sapiens, UniProt P29274); test: Safety47 panel GPCR ADORA2A; type: cell-based; conditions: 3 μM
T5 construct: CEREP (CRO that ran the panel)
T5 sequence (P29274 whole entry): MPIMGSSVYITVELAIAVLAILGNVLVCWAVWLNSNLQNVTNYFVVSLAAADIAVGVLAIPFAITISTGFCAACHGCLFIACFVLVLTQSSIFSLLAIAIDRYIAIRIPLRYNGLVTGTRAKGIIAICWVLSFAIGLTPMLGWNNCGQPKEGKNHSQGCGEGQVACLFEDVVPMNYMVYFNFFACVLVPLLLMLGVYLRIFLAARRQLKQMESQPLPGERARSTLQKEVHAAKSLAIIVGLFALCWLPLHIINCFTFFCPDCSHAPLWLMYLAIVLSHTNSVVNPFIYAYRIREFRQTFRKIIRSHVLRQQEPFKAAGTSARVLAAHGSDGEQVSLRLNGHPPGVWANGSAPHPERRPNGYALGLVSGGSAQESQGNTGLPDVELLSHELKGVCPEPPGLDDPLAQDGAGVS
Description: as §1

Potassium Channel hERG = Potassium Channel hERG (Homo sapiens, UniProt Q12809); test: in vitro
Potassium Channel hERG, sequence (Q12809 whole entry): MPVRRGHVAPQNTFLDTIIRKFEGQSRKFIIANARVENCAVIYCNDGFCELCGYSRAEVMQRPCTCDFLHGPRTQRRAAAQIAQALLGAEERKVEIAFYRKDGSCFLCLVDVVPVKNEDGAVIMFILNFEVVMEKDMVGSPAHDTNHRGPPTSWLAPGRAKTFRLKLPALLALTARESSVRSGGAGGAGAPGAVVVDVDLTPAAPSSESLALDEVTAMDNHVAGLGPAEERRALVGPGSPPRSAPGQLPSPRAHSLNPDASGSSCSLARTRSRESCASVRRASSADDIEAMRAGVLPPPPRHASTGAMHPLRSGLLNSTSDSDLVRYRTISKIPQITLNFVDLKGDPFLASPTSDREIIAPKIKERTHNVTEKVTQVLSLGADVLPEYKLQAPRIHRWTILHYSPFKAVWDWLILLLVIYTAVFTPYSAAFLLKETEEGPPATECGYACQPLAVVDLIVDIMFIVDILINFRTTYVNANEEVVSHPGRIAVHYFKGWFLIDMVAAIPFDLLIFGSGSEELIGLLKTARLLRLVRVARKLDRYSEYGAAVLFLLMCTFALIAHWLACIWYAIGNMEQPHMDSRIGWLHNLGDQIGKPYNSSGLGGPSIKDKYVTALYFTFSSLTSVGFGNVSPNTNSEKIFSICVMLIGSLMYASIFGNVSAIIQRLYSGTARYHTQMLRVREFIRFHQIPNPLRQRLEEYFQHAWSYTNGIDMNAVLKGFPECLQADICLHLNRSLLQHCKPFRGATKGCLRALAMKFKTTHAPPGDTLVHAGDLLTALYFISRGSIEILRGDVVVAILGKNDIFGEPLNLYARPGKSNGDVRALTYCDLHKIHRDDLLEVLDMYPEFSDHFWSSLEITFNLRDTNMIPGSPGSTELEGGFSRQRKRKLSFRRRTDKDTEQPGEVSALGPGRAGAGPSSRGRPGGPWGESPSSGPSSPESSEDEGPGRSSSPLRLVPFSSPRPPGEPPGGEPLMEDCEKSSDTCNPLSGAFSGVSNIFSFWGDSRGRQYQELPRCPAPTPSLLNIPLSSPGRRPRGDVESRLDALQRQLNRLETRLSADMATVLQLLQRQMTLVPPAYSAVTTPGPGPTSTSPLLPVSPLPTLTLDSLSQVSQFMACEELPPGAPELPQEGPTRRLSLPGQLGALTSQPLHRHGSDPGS
Description: Additionally, we tested LOC14 in CEREP's Safety47 panel, an in vitro pharmacological profiling to determine off-target liabilities that might exist against 47 human targets associated with safety issues (Table 3 and Table 4).

[5] = molecular target: T6, CHRM2 (muscarinic acetylcholine receptor M2) (Homo sapiens, UniProt P08172); test: Safety47 panel GPCR CHRM2; type: cell-based
T6 construct: CEREP (CRO that ran the panel)
T6 sequence (P08172 whole entry): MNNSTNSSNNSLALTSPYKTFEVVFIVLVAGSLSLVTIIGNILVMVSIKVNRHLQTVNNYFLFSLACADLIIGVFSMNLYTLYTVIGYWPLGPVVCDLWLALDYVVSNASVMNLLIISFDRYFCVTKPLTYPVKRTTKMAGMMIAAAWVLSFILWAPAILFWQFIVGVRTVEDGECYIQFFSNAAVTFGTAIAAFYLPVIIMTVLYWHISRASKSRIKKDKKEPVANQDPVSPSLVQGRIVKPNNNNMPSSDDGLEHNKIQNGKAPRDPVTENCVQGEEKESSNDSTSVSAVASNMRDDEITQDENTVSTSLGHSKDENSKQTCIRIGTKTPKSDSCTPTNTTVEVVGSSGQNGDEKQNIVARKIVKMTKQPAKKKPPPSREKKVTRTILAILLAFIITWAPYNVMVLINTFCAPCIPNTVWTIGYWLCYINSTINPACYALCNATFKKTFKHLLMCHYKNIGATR
Description: as §1

[6] = Tables 5-13, solvent not given (DMSO in Table 1)
[7] = Tables 5-13, PC12 cells, read-out: EC50
[8] = rescue from mHTTQ103 induced cell death

Structure (SMILES)	protection of pyramidal neurons in AD brain slice ([1]; 3 days treatment)	concentration that provided peak rescue ([1]; AD brain slice assay) [µM]	Solubility [2] [mM in DMSO]	Solubility [2, 6] [mM]	EC50 (PC12 mHTTQ103 cells; [7]) [µM]	Max Viability (%) (PC12 mHTTQ103 cells; Tables 5-13, PC12 cells)	PC12 cells Max % Viability (PC12 mHTTQ103 cells; [8]) [%]	change in mass of wild-type PDIa (MALDI-TOF) (wild-type PDIa)	toxicity in PC12 cell culture assay [3]	Average (PDE4D2)	Average (NET)	Average (PDE3A)	EC50 (PC12 mHTTQ103 cells; rescue from mHTTQ103 induced cell death, read-out: PC12 cells EC50) [µM]	EC100 (PC12 mHTTQ103 cells; protection from mHTT toxicity, FIG. 13A) [µM]	inhibition at 3 µM [4] [%]	Average % Response (ADORA2A; Agonist mode) [%]	Average % Response (ADORA2A; Antagonist mode) [%]	inhibition at 3 µM (Potassium Channel hERG) [%]	activity (response) against muscarinic acetylcholine receptor M2 [5]
O=C(C1CC1)N1CCN(Cn2sc3c(F)cccc3c2=O)CC1 [LC-43]	dose-dependent rescue; also recorded: robust neuroprotection	10	100	100 (≈ 33.5 mg/mL)	7.41	56	56.48	no change in mass	decreased cellular toxicity	–	–	–	–	–	–	–	–	–	–
O=C(C1CC1)N1CCN(Cn2sc3ccccc3c2=O)CC1 [LOC14]	–	–	100	100 (≈ 31.7 mg/mL)	0.352	66	66.25	–	–	0.0	0.0	0.0	0.352	3.1	24	2.6	2.4	10	< 95% and 70%
